Measurements published in the supplement of paper PMC12533247.

How the values were obtained:
[1] = test system: HSV-1 K26-GFP infected primary human skin cells; experiment: % change of HSV-1 GFP signal vs untreated infected cells; higher = less antiviral inhibition
Description: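 2D primary donor-derived keratinocytes (read at 20 hpi) and donor-matched dermal fibroblasts (read at 48 hpi) infected with GFP-HSV-1 K26 at MOI 1 and treated 1 h later with compound dilutions. IncuCyte GFP integrated intensity is normalised by subtracting mock-infected wells and dividing by untreated infected wells, shown as % change (-100 = full inhibition).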

[2] = test system: HSV-1 K26-GFP infected 3D skin equivalent; experiment: % activity on HSV-1 GFP signal (0 = infected DMSO control, -100 = uninfected control); higher = higher signal (negative = inhibition / toxicity); conditions: time (h post infection): 48
Description: (§1)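 Triplicate dose-response (0.04 to 10 uM) of 11 top compounds in 3D bioprinted skin equivalents (submerged and ALI models) infected with GFP-HSV-1 K26 at MOI 0.1 and fixed at 48 hpi. GFP (virus) and tdTomato (fibroblast viability) signals are normalised to per-plate controls.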

primary keratinocytes = experiment: % change in live cells vs DMSO control; higher = less cytotoxic; conditions: time (h post treatment): 20
Description: (§2)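 Cytotoxicity in uninfected 2D primary donor keratinocytes (20 h post treatment) and fibroblasts (48 h post treatment), measured with NucSpot live/dead dyes on IncuCyte. Live cells are normalised to the 0.2% DMSO control and shown as % change. Three biological replicates for each of donors 3, 4 and 5.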

[3] = test system: primary dermal fibroblasts; experiment: as above; conditions: time (h post treatment): 48
Description: as §2

[4] = test system: HSV-1 K26-GFP infected 3D skin equivalent; experiment: % change of tdTomato fibroblast signal relative to infected DMSO control; higher = higher signal (negative = inhibition / toxicity); conditions: time (h post infection): 48
Description: as §1

CC1(C)CC(=O)c2c(C(F)(F)F)nn(-c3ccc(C(N)=O)c(N[C@H]4CC[C@H](O)CC4)c3)c2C1 [SNX-2112]
% change of HSV-1 GFP signal [%], [1]
Conditions	0.001 µM	0.003 µM	0.0091 µM	0.0274 µM	0.0823 µM	0.2469 µM	0.7407 µM	2.2222 µM	6.6667 µM	20 µM
cell type: primary dermal fibroblasts, donor: 5, time (h post infection): 48	–	-7.73	-15.6	-26.2	-67.5	-95.5	-98.7	-98.8	-99.29	-98.8
cell type: primary keratinocytes, donor: 3, time (h post infection): 20	9.13	13.4	18.9	18.3	-27.7	-93.6	-99.06	-99.56	-99.47	-99.7
cell type: primary keratinocytes, donor: 4, time (h post infection): 20	9.33	1.99	-3	-5.23	-58	-98.23	-99.906	-100.1	-100.02	-100
cell type: primary keratinocytes, donor: 5, time (h post infection): 20	8.24	-1.8	-0.244	-15.1	-81.52	-98.96	-99.957	-99.916	-99.948	-99.936

Conditions	% activity on HSV-1 GFP signal, [2] [%]	% change in live cells, [3] [%]	% change in live cells, primary keratinocytes [%]	% change of tdTomato fibroblast signal, [4] [%]
0.041152 µM, model: ALI	-92.8	–	–	0.975
0.041152 µM, model: submerged	-58.7	–	–	-4.63
0.082305 µM, donor: 3	–	-17.7	-14.3	–
0.082305 µM, donor: 4	–	14.3	4.33	–
0.082305 µM, donor: 5	–	9	-22	–
0.123457 µM, model: ALI	-99.7	–	–	-7.26
0.123457 µM, model: submerged	-81.7	–	–	-2.18
0.246914 µM, donor: 3	–	-20.7	-38.3	–
0.246914 µM, donor: 4	–	4.67	-29	–
0.246914 µM, donor: 5	–	-1.67	-60.7	–
0.37037 µM, model: ALI	-98.9	–	–	-17.9
0.37037 µM, model: submerged	-98.1	–	–	-23.3
0.740741 µM, donor: 3	–	-23	-40.3	–
0.740741 µM, donor: 4	–	0.333	-53.3	–
0.740741 µM, donor: 5	–	-1.67	-72.3	–
1.111111 µM, model: ALI	-103	–	–	-33.5
1.111111 µM, model: submerged	-101	–	–	-52.2
2.22222 µM, donor: 3	–	-22.3	-43.7	–
2.22222 µM, donor: 4	–	0.667	-58.7	–
2.22222 µM, donor: 5	–	-8.67	-77	–
3.33333 µM, model: ALI	-98.4	–	–	-36.3
3.33333 µM, model: submerged	-105	–	–	-55
6.66667 µM, donor: 3	–	-22.7	-49	–
6.66667 µM, donor: 4	–	6.33	-70	–
6.66667 µM, donor: 5	–	-10.3	-79	–
10 µM, model: ALI	-107	–	–	-32.3
10 µM, model: submerged	-102	–	–	-50.9
20 µM, donor: 3	–	-22.7	-59.3	–
20 µM, donor: 4	–	7.33	-74	–
20 µM, donor: 5	–	-13.7	-76.7	–
60 µM, donor: 3	–	-21	-79.3	–
60 µM, donor: 4	–	1	-74	–
60 µM, donor: 5	–	-32.3	-57.7	–

C=CC(=O)N1CC/C(=C\c2ccc(F)c([N+](=O)[O-])c2)C(=O)/C(=C/c2ccc(F)c([N+](=O)[O-])c2)C1 [VLX1570]
% change of HSV-1 GFP signal [%], [1]
Conditions	0.001 µM	0.003 µM	0.0091 µM	0.0274 µM	0.0823 µM	0.2469 µM	0.7407 µM	2.2222 µM	6.6667 µM	20 µM
cell type: primary dermal fibroblasts, donor: 5, time (h post infection): 48	1.14	-5.38	-8.21	-7.07	-8.61	-9.37	-7.7	-10.9	-99.906	-99.87
cell type: primary keratinocytes, donor: 3, time (h post infection): 20	3.39	0.794	7.81	21.4	8.28	2.87	4.02	-1.2	-51.7	-92.7
cell type: primary keratinocytes, donor: 4, time (h post infection): 20	-7.51	-5.56	-6.93	-1.76	-3.15	-3.18	6.11	-25	-97.4	-100
cell type: primary keratinocytes, donor: 5, time (h post infection): 20	4.93	5.79	3.47	7.82	7.36	5.33	1.2	-8.44	-91.4	-99.966

Conditions	% activity on HSV-1 GFP signal, [2] [%]	% change in live cells, [3] [%]	% change in live cells, primary keratinocytes [%]	% change of tdTomato fibroblast signal, [4] [%]
0.041152 µM, model: ALI	12.8	–	–	-0.238
0.041152 µM, model: submerged	-7.34	–	–	0.174
0.082305 µM, donor: 3	–	-13	-11.3	–
0.082305 µM, donor: 4	–	2.33	-13.3	–
0.082305 µM, donor: 5	–	2	-6.33	–
0.123457 µM, model: ALI	-18.6	–	–	-3.26
0.123457 µM, model: submerged	-4.05	–	–	-4.91
0.246914 µM, donor: 3	–	-15.3	-24	–
0.246914 µM, donor: 4	–	0	-18	–
0.246914 µM, donor: 5	–	4.67	-10	–
0.37037 µM, model: ALI	-96	–	–	-1.14
0.37037 µM, model: submerged	-5.03	–	–	-4.63
0.740741 µM, donor: 3	–	-24	-37.7	–
0.740741 µM, donor: 4	–	-1.33	-13	–
0.740741 µM, donor: 5	–	4.33	-11	–
1.111111 µM, model: ALI	-97.3	–	–	-12.1
1.111111 µM, model: submerged	-4.45	–	–	-15
2.22222 µM, donor: 3	–	-46.7	-54	–
2.22222 µM, donor: 4	–	-3	-9.33	–
2.22222 µM, donor: 5	–	-1.67	-10.7	–
3.33333 µM, model: ALI	-103	–	–	-17.4
3.33333 µM, model: submerged	-17.6	–	–	-33.6
6.66667 µM, donor: 3	–	-100	-58.3	–
6.66667 µM, donor: 4	–	-3	-66	–
6.66667 µM, donor: 5	–	-20.7	-39	–
10 µM, model: ALI	-101	–	–	-25.4
10 µM, model: submerged	-55.5	–	–	-48
20 µM, donor: 3	–	-101.3	-85.3	–
20 µM, donor: 4	–	-44	-70	–
20 µM, donor: 5	–	-98	-74.7	–
60 µM, donor: 3	–	-98.7	-95	–
60 µM, donor: 4	–	-116	-99.33	–
60 µM, donor: 5	–	-96.7	-97.67	–

O=C(/C=C\n1cnc(-c2cc(C(F)(F)F)cc(C(F)(F)F)c2)n1)NNc1ccccn1 [Verdinexor]
% change of HSV-1 GFP signal [%], [1]
Conditions	0.001 µM	0.003 µM	0.0091 µM	0.0274 µM	0.0823 µM	0.2469 µM	0.7407 µM	2.2222 µM	6.6667 µM	20 µM
cell type: primary dermal fibroblasts, donor: 5, time (h post infection): 48	-15.5	-14.5	-9.81	-15.2	-14.8	-16.9	-28.1	-45.5	-46.8	-46.5
cell type: primary keratinocytes, donor: 3, time (h post infection): 20	17.4	18.1	8.7	2.9	12.9	9.98	-22.6	-68.6	-87.6	-92
cell type: primary keratinocytes, donor: 4, time (h post infection): 20	-13.1	-10.8	-21.9	-29.6	-15.4	-22.4	-47.4	-82.8	-95.8	-97.6
cell type: primary keratinocytes, donor: 5, time (h post infection): 20	6.47	3.84	3.12	6.11	10.5	3.84	8.2	-36.4	-76.6	-94.9

Conditions	% activity on HSV-1 GFP signal, [2] [%]	% change in live cells, [3] [%]	% change in live cells, primary keratinocytes [%]	% change of tdTomato fibroblast signal, [4] [%]
0.041152 µM, model: ALI	22.5	–	–	8.09
0.041152 µM, model: submerged	-2.17	–	–	8.73
0.082305 µM, donor: 3	–	-24	-11	–
0.082305 µM, donor: 4	–	-8.33	-9	–
0.082305 µM, donor: 5	–	-0.667	-5.67	–
0.123457 µM, model: ALI	-30.1	–	–	-4.16
0.123457 µM, model: submerged	-37	–	–	-8.13
0.246914 µM, donor: 3	–	-20.3	-23.3	–
0.246914 µM, donor: 4	–	-9.67	-17	–
0.246914 µM, donor: 5	–	-6.33	-12.7	–
0.37037 µM, model: ALI	-82.5	–	–	-13.3
0.37037 µM, model: submerged	-41.1	–	–	-4.26
0.740741 µM, donor: 3	–	-22.3	-38.7	–
0.740741 µM, donor: 4	–	-14	-12	–
0.740741 µM, donor: 5	–	-10.7	-16.7	–
1.111111 µM, model: ALI	-92.6	–	–	-11.7
1.111111 µM, model: submerged	-56.4	–	–	-2.44
2.22222 µM, donor: 3	–	-23.3	-44.3	–
2.22222 µM, donor: 4	–	-9.67	-32	–
2.22222 µM, donor: 5	–	-15.7	-23.3	–
3.33333 µM, model: ALI	-105	–	–	-19.1
3.33333 µM, model: submerged	-65.7	–	–	-1.43
6.66667 µM, donor: 3	–	-24.7	-60.3	–
6.66667 µM, donor: 4	–	-11	-42.3	–
6.66667 µM, donor: 5	–	-18.7	-31.7	–
10 µM, model: ALI	-108	–	–	-6.29
10 µM, model: submerged	-68.6	–	–	-5.83
20 µM, donor: 3	–	-27.7	-68.3	–
20 µM, donor: 4	–	-13.3	-74.7	–
20 µM, donor: 5	–	-23.7	-74	–
60 µM, donor: 3	–	-40.3	-75.3	–
60 µM, donor: 4	–	-31.3	-86.7	–
60 µM, donor: 5	–	-44	-82	–
